In ChEMBL document CHEMBL3120136 (J Med Chem, 2014):
Converted amounts (≈) assume the structure as drawn.

Tests used:
Hepatitis C virus [1] = assay: Antiviral activity against Hepatitis C virus infected in human HuH7 cells assessed as inhibition of HCV subgenomic replicon replication after 72 hrs by ELISA; assay type: functional, organism-based, Hepacivirus hominis, Huh-7; settings: Hepatitis C virus, Huh-7, 72 h; read-out: EC50
[2] = Inhibition of Hepatitis C virus full-length NS3/4A protease assessed as quenched-fluorogenic RET-S1 substrate cleavage incubated for 10 mins prior to substrate addition by FRET analysis; set-up: species or system Hepacivirus hominis
Liver = assay: (§1) Ratio of AUC (0 to 24 hrs) in liver to plasma in Sprague-Dawley rat at 30 mg/kg, po by HPLC-MS/MS analysis; assay type: ADME, organism-based; set-up: dose 30 mg/kg, route oral; settings: other tissue
[3] = AUC (0 to 24 hrs) in Sprague-Dawley rat plasma at 30 mg/kg, po by HPLC-MS/MS analysis; assay type: ADME, organism-based; set-up: time < 24 hr, dose 30 mg/kg, route oral
[4] = AUC (0 to 24 hrs) in Sprague-Dawley rat liver at 30 mg/kg, po by HPLC-MS/MS analysis; assay type: ADME, organism-based; set-up: time < 24 hr, dose 30 mg/kg, route oral
[5] = Plasma clearance in rat assessed as extraction ratio; assay type: ADME, organism-based; settings: read-out: ERH
[6] = Efflux ratio of permeability from basolateral to apical side over apical to basolateral side in human Caco2 cells; assay type: ADME, cell-based; settings: Caco-2
[7] = Permeability from apical to basolateral side of human Caco2 cells; assay type: ADME, cell-based; settings: Caco-2, read-out: permeability
[8] = Aqueous solubility of the compound at pH 6.5 by modified shake-flask method; assay type: physicochemical
[9] = Aqueous solubility of the compound at pH 7.4 by modified shake-flask method; assay type: physicochemical
[10] = Aqueous solubility of the compound at pH 1.2 by modified shake-flask method; assay type: physicochemical
[11] = Metabolic stability in dog hepatocytes assessed as extraction ratio at 1 uM; assay type: ADME, cell-based, Canis lupus familiaris, Hepatocyte; settings: read-out: ERH
[12] = Metabolic stability in cynomolgus monkey hepatocytes assessed as extraction ratio at 1 uM; assay type: ADME, cell-based, Macaca fascicularis, Hepatocyte; settings: read-out: ERH
[13] = Metabolic stability in human hepatocytes assessed as extraction ratio at 1 uM; assay type: ADME, cell-based, Hepatocyte; settings: read-out: ERH
[14] = Metabolic stability in rat hepatocytes assessed as extraction ratio at 1 uM; assay type: ADME, cell-based, Hepatocyte; settings: read-out: ERH
[15] = Lipophilicity, log D of the compound; assay type: physicochemical; settings: octanol/water
[16] = Ratio of drug level in liver to plasma in Sprague-Dawley rat at 30 mg/kg, po by HPLC-MS/MS analysis; assay type: ADME, organism-based; set-up: dose 30 mg/kg, route oral; settings: liver and plasma
Rattus norvegicus = assay: Volume of distribution at steady state in Sprague-Dawley rat at 1 mg/kg, iv by HPLC-MS/MS analysis; settings: in vivo
Hepatitis C virus [17] = assay: Antiviral activity against Hepatitis C virus genotype 3 infected in human HuH7 cells assessed as decrease in replicon RNA level after 2 days by TaqMan Gold RT-PCR analysis; assay type: functional, organism-based, Hepacivirus hominis; settings: genotype 3, Huh-7, 48 h
Hepatitis C virus [18] = assay: Antiviral activity against Hepatitis C virus genotype 1b infected in human HuH7 cells assessed as decrease in replicon RNA level after 2 days by TaqMan Gold RT-PCR analysis; assay type: functional, organism-based, Hepacivirus hominis; settings: Huh-7, 48 h
Hepatitis C virus [19] = assay: Antiviral activity against Hepatitis C virus genotype 2 infected in human HuH7 cells assessed as decrease in replicon RNA level after 2 days by TaqMan Gold RT-PCR analysis; assay type: functional, organism-based, Hepacivirus hominis; settings: genotype 2, Huh-7, 48 h
[20] = Inhibition of Hepatitis C virus genotype 3a NS3/4A protease using Ac-DE-Dap(QXL520)-EE-Abu-psi-[COO]-AS-Cys(5-FAMsp)-NH2 as substrate by FRET analysis; set-up: species or system Hepatitis C virus subtype 3a
[21] = Inhibition of Hepatitis C virus genotype 2b NS3/4A protease using Ac-DE-Dap(QXL520)-EE-Abu-psi-[COO]-AS-Cys(5-FAMsp)-NH2 as substrate by FRET analysis; set-up: species or system Hepatitis C virus subtype 2b
[22] = Inhibition of Hepatitis C virus genotype 6 NS3/4A protease using Ac-DE-Dap(QXL520)-EE-Abu-psi-[COO]-AS-Cys(5-FAMsp)-NH2 as substrate by FRET analysis
[23] = Inhibition of Hepatitis C virus genotype 5 NS3/4A protease using Ac-DE-Dap(QXL520)-EE-Abu-psi-[COO]-AS-Cys(5-FAMsp)-NH2 as substrate by FRET analysis
[24] = Inhibition of Hepatitis C virus genotype 4 NS3/4A protease using Ac-DE-Dap(QXL520)-EE-Abu-psi-[COO]-AS-Cys(5-FAMsp)-NH2 as substrate by FRET analysis
[25] = Inhibition of Hepatitis C virus genotype 1b NS3/4A protease using Ac-DE-Dap(QXL520)-EE-Abu-psi-[COO]-AS-Cys(5-FAMsp)-NH2 as substrate by FRET analysis; set-up: species or system Hepatitis C virus subtype 1b
[26] = Inhibition of Hepatitis C virus genotype 1a NS3/4A protease using Ac-DE-Dap(QXL520)-EE-Abu-psi-[COO]-AS-Cys(5-FAMsp)-NH2 as substrate by FRET analysis; set-up: species or system Hepatitis C virus subtype 1a
[27] = Dissociation constant, pKa of the compound; assay type: physicochemical
Hepatitis C virus [28] = assay: Ratio of EC50 for Hepatitis C virus harboring NS3/4A protease A156T mutant gene to EC50 for Hepatitis C virus harboring wild type NS3/4A protease infected in human HuH7 cells; assay type: functional, Hepacivirus hominis, Huh-7
Hepatitis C virus [29] = assay: Antiviral activity against Hepatitis C virus harboring NS3/4A protease A156T mutant gene infected in human HuH7 cells assessed as inhibition of HCV subgenomic replicon replication after 72 hrs by ELISA; assay type: functional, organism-based, Hepacivirus hominis; settings: Huh-7, 72 h
Hepatitis C virus [30] = assay: Antiviral activity against Hepatitis C virus harboring wild type NS3/4A protease infected in human HuH7 cells assessed as inhibition of HCV subgenomic replicon replication after 72 hrs by ELISA; assay type: functional, organism-based, Hepacivirus hominis; settings: Huh-7, 72 h
Hepatitis C virus [31] = assay: Antiviral activity against Hepatitis C virus […] isolate Con1 harboring NS3/4A protease A156T mutant gene infected in human HuH7 cells assessed as inhibition of HCV replicon replication by luciferase assay; assay type: functional, organism-based, Hepacivirus hominis; settings: isolate Con1, Huh-7
Hepatitis C virus [32] = assay: Antiviral activity against Hepatitis C virus […] isolate Con1 harboring wild type NS3/4A protease infected in human HuH7 cells assessed as inhibition of HCV replicon replication by luciferase assay; assay type: functional, organism-based, Hepacivirus hominis; settings: isolate Con1, Huh-7
NS3 protease = NS3 protease (Hepacivirus C, UniProt C1KIQ2, A156T); assay: Inhibition of Hepatitis C virus genotype 1a NS3/4A protease A156T mutant expressed in Escherichia coli BL21 (DE3) cells assessed as substrate cleavage using Ac-DE-Dap(QXL520)-EE-Abu-psi-[COO]AS-C(5-FAMsp)-NH2 as substrate by plate reader analysis; set-up: species or system Hepatitis C virus subtype 1a
NS3 protease, sequence (C1KIQ2 entry or part of it A156T): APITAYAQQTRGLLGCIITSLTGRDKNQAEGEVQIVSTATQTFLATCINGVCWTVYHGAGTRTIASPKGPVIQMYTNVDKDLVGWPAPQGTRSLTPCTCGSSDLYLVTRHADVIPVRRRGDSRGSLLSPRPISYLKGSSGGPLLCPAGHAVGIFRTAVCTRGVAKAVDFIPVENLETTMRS

[33] = Inhibition of Hepatitis C virus genotype 1a wild type NS3/4A protease expressed in Escherichia coli BL21 (DE3) cells assessed as substrate cleavage using Ac-DE-Dap(QXL520)-EE-Abu-psi-[COO]AS-C(5-FAMsp)-NH2 as substrate by plate reader analysis; set-up: species or system Hepatitis C virus subtype 1a
[34] = as §1; assay type: ADME, organism-based; set-up: dose 30 mg/kg, route oral; settings: Sprague-Dawley, liver and plasma, read-out: Ratio AUC
[35] = Ratio of drug level in liver to plasma in dog; assay type: ADME, tissue-based, Canis lupus familiaris; settings: liver and plasma
[36] = Oral bioavailability in monkey liver; assay type: ADME, organism-based, Macaca mulatta; settings: rhesus monkey
[37] = Oral bioavailability in rat liver; assay type: ADME, organism-based
[38] = molecular target: Voltage-gated inwardly rectifying potassium channel KCNH2 (Homo sapiens, UniProt Q12809); assay: Inhibition of human ERG at 10 uM
Voltage-gated inwardly rectifying potassium channel KCNH2, sequence (Q12809 whole entry): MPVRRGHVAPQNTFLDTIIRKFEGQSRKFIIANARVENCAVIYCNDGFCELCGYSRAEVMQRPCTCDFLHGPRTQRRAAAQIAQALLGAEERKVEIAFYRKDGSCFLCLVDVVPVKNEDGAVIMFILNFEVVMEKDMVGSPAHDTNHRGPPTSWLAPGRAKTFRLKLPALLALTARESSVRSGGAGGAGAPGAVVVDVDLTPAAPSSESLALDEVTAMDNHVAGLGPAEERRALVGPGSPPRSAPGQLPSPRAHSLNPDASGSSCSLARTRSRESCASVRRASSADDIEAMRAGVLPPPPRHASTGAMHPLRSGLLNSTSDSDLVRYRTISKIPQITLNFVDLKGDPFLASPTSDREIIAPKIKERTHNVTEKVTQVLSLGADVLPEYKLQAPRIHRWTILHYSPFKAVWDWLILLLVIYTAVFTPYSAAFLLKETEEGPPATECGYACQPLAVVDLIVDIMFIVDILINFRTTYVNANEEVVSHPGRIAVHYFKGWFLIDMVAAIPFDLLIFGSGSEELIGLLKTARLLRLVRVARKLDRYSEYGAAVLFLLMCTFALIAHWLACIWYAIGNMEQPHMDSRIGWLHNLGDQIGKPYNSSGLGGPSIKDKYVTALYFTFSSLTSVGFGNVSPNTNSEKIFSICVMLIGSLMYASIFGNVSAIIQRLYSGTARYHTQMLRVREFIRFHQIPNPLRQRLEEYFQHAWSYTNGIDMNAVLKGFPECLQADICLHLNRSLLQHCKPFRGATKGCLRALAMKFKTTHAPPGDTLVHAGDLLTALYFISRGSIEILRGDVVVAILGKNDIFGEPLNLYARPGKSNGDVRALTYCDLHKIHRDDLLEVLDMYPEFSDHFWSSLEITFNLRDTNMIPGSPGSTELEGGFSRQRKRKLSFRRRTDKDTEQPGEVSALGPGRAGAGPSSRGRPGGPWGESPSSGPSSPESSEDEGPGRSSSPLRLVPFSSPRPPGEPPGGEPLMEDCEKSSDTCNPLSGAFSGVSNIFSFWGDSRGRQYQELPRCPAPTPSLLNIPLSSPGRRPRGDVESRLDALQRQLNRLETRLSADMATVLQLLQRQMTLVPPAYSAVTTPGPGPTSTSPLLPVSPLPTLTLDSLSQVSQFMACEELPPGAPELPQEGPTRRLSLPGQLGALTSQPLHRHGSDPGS

Cytochrome P450 3A4 [39] = molecular target: T1, Cytochrome P450 3A4 (Homo sapiens, UniProt P08684); assay: Time-dependent induction of CYP3A4 (unknown origin); assay type: ADME
T1 sequence (P08684 whole entry): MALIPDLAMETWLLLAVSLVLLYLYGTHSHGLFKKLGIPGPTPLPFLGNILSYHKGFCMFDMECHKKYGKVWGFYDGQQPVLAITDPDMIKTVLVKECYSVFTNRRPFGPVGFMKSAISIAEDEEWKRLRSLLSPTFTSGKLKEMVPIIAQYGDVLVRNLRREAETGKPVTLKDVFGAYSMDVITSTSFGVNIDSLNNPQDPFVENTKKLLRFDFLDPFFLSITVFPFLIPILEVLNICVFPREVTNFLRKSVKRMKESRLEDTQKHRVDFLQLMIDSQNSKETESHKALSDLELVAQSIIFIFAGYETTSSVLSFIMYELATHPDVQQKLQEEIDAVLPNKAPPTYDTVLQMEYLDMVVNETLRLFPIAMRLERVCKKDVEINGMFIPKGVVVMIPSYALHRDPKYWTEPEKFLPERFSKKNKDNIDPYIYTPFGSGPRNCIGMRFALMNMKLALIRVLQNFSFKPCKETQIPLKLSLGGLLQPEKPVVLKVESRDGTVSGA

Cytochrome P450 3A4 [40] = molecular target: T1, Cytochrome P450 3A4; assay: Inhibition of CYP3A4 (unknown origin); assay type: ADME
Cytochrome P450 2D6 = Cytochrome P450 2D6 (Homo sapiens, UniProt P10635); assay: Inhibition of CYP2D6 (unknown origin); assay type: ADME
Cytochrome P450 2D6, sequence (P10635 whole entry): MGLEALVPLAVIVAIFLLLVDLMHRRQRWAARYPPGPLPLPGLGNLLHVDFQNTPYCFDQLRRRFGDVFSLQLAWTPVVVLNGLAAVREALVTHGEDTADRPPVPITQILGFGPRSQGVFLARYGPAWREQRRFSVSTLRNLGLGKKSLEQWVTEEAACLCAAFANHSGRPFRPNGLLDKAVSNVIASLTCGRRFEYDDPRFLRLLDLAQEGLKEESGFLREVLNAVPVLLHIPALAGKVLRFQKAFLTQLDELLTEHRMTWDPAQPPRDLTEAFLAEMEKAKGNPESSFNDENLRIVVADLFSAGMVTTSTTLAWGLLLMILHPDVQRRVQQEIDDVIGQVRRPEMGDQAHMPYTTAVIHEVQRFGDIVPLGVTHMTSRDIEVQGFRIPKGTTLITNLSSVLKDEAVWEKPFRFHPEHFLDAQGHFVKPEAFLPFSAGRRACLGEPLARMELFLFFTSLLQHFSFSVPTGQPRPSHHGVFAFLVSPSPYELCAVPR

Cytochrome P450 2C19 = Cytochrome P450 2C19 (Homo sapiens, UniProt P33261); assay: Inhibition of CYP2C19 (unknown origin); assay type: ADME
Cytochrome P450 2C19, sequence (P33261 whole entry): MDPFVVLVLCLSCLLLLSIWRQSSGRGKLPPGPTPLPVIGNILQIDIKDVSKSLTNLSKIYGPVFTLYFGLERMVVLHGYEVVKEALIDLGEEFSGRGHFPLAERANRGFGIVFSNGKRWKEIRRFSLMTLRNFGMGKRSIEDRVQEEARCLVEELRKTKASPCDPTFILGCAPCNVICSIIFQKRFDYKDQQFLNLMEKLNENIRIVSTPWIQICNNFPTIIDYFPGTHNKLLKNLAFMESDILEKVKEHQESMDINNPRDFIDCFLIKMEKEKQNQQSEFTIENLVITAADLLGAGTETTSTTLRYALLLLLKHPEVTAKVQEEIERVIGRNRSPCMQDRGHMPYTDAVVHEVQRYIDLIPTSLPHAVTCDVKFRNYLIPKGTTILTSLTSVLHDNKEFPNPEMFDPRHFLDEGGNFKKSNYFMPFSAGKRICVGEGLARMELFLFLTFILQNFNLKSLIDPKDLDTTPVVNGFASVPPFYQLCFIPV

Cytochrome P450 2C9 = Cytochrome P450 2C9 (Homo sapiens, UniProt P11712); assay: Inhibition of CYP2C9 (unknown origin); assay type: ADME
Cytochrome P450 2C9, sequence (P11712 whole entry): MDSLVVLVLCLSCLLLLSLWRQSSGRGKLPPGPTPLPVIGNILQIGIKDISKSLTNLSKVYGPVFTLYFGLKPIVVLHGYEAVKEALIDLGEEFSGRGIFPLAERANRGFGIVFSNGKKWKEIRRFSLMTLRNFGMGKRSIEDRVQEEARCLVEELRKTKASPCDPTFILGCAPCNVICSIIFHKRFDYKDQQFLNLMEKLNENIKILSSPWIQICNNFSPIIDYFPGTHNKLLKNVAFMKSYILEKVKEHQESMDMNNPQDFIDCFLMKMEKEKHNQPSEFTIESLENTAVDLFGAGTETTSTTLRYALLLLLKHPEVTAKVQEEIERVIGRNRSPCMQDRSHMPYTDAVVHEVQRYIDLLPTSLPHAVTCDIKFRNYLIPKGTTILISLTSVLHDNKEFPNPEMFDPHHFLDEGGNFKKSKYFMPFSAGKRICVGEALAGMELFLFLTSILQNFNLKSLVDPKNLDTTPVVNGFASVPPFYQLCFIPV

Cytochrome P450 1A2 = molecular target: T2, Cytochrome P450 1A2 (Homo sapiens, UniProt P05177); assay: Inhibition of CYP1A2 (unknown origin); assay type: ADME
T2 sequence (P05177 whole entry): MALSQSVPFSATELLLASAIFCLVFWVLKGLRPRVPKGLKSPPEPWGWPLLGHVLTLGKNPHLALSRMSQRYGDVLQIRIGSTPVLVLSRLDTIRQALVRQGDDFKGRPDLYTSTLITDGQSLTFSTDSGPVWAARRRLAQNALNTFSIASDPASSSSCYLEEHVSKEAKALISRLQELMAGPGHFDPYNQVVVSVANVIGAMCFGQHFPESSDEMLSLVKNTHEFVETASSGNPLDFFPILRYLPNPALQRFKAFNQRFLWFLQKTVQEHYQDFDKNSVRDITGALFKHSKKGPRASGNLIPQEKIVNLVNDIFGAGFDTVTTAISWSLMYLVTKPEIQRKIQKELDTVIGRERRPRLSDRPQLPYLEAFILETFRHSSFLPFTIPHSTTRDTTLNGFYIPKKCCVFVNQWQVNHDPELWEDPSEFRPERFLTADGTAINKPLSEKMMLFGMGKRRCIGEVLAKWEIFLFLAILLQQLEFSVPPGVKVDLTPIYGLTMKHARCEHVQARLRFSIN

[41] = Cytotoxicity against human MT4 cells; assay type: cell-based

In the case of `CC(C)(C)OC(=O)N[C@H]1CCCCC/C=C\[C@@H]2C[C@@]2(C(=O)NS(=O)(=O)C2CC2)NC(=O)[C@@H]2C[C@@H](OC(=O)N3CCc4ccccc4C3)CN2C1=O`, the EC50 (Hepatitis C virus [1]) is reported as 17.5 nM, the IC50 [2] is reported as 2.2 nM and the “Ratio AUC” value (Liver) is reported as 4608. It also gave an AUC(0-t) at 24 h [3] of 60 ng·h/mL, an AUC(0-t) at 24 h [4] of 276000 ng·h/mL and a hepatic extraction ratio [5] greater than 1. The efflux ratio [6] was greater than 2, the Papp A→B [7] was less than 2 ×10⁻⁶ cm/s and the solubility thermodynamic [8] was 812 µg/mL (≈ 1120 µM). For the same compound, the solubility thermodynamic [9] was greater than 1000 µg/mL, the solubility thermodynamic [10] was 0.5 µg/mL (≈ 0.687 µM) and the hepatic extraction ratio at 1 µM [11] was 0.36. It also gave a hepatic extraction ratio at 1 µM [12] of 0.53, a hepatic extraction ratio at 1 µM [13] of 0.49 and a hepatic extraction ratio at 1 µM [14] of 0.05. It also gave a logD [15] of 2.2, a Kp [16] greater than 1000 and a Vdss (Rattus norvegicus) of 5.982 L/kg.

In the case of `CC(C)(C)OC(=O)N[C@H]1CCCCC/C=C\[C@@H]2C[C@@]2(C(=O)NS(=O)(=O)C2CC2)NC(=O)[C@@H]2C[C@@H](OC(=O)N3Cc4cccc(F)c4C3)CN2C1=O` [DANOPREVIR], the EC50 (Hepatitis C virus [17]) is reported as 20 nM, the EC50 (Hepatitis C virus [18]) is reported as 1.6 nM and the EC50 (Hepatitis C virus [19]) is reported as 20 nM. For the same compound, the IC50 [20] was 3.5 nM, the IC50 [21] was 1.6 nM and the IC50 [22] was 0.2 nM. The IC50 [23] was 0.2 nM, the IC50 [24] was 0.2 nM and the IC50 [25] was 0.2 nM. It also gave an IC50 [26] of 0.2 nM, an EC50 (Hepatitis C virus [1]) of 2.4 nM and an IC50 [2] of 1 nM. The pKa [27] was 5.27, the “Ratio EC50” value (Hepatitis C virus [28]) was 2 and the EC50 (Hepatitis C virus [29]) was 0.5 nM. It also gave an EC50 (Hepatitis C virus [30]) of less than 0.25 nM, an IC50 (Hepatitis C virus [31]) of 5.7 nM and an IC50 (Hepatitis C virus [32]) of 0.24 nM. For the same compound, the Ki (NS3 protease) was 44.8 nM, the Ki [33] was 1 nM and the Kp [34] was 10. For the same compound, the AUC(0-t) at 24 h [3] was 9500 ng·h/mL, the AUC(0-t) at 24 h [4] was 90800 ng·h/mL and the hepatic extraction ratio [5] was 0.04. It also gave an efflux ratio [6] greater than 2, a Papp A→B [7] of less than 2 ×10⁻⁶ cm/s and a solubility thermodynamic [8] of 548 µg/mL (≈ 749 µM). The solubility thermodynamic [9] was greater than 1000 µg/mL, the solubility thermodynamic [10] was 0.5 µg/mL (≈ 0.683 µM) and the hepatic extraction ratio at 1 µM [11] was 0.23. For the same compound, the hepatic extraction ratio at 1 µM [12] was 0.54, the hepatic extraction ratio at 1 µM [13] was 0.58 and the hepatic extraction ratio at 1 µM [14] was 0.06. It also gave a logD [15] of 2.1, a Kp [35] of 30 and a bioavailability [36] of 78%. For the same compound, the bioavailability [37] was 15%, the “inhibition (INH)” value [38] was “Not Active” and the Activity (Cytochrome P450 3A4 [39]) was “Not Active”. The INH (Cytochrome P450 3A4 [40]) was 12 µM, the INH (Cytochrome P450 2D6) was greater than 25 µM and the INH (Cytochrome P450 2C19) was greater than 25 µM. The INH (Cytochrome P450 2C9) was greater than 25 µM, the INH (Cytochrome P450 1A2) was greater than 25 µM and the CC50 [41] was 54000 nM. The Vdss (Rattus norvegicus) was 0.155 L/kg.
